Results reported in ChEMBL document CHEMBL1201862, “PubChem BioAssay data set” (2004).
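Five compound concentrations were applied to cells in 96-well plates for 48 hours; endpoints were derived by simple linear interpolation of the resulting dose-response curve. Abbreviation: GI50, concentration required for 50% inhibition of growth.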 Active and inactive are the calls of the source. Rule as the data show it: active = GI50 up to about 1.1 µM and inactive = higher.

Tests used:
Test in all cases: inhibition of tumour cell growth, NCI panel, 48 h
786-0 = system: 786-0
NCI-H23 = system: NCI-H23
CAKI-1 = system: CAKI-1
SNB-19 = system: SNB-19
HCT-116 = system: HCT-116
PC-3 = system: PC-3
NCI-H460 = system: NCI-H460
OVCAR-8 = system: OVCAR-8
A549 = system: A549
SK-MEL-28 = system: SK-MEL-28
SN12C = system: SN12C
RXF 393 = system: RXF 393
CCRF-CEM = system: CCRF-CEM
U-251 = system: U-251
IGROV-1 = system: IGROV-1
ACHN = system: ACHN
SF-268 = system: SF-268
HL-60 = system: HL-60
MDA-MB-231 = system: MDA-MB-231
Malme-3M = system: Malme-3M

Measured: GI50

CN1CCC[N+](C)=C1c1ccccc1
inactive: 786-0 > 100 µM | NCI-H23 > 100 µM | CAKI-1 > 100 µM | SNB-19 > 100 µM | HCT-116 > 100 µM | PC-3 > 100 µM | NCI-H460 > 100 µM | OVCAR-8 > 100 µM | A549 > 100 µM | SK-MEL-28 > 100 µM | SN12C > 100 µM | RXF 393 > 100 µM | CCRF-CEM > 100 µM | U-251 > 100 µM | IGROV-1 > 100 µM | ACHN > 100 µM | SF-268 > 100 µM | HL-60 > 100 µM | MDA-MB-231 > 100 µM | Malme-3M > 100 µM
